Patent publication US20100267561A1, “HERBICIDAL PYRIDAZINONE DERIVATIVES” (priority 2007, published 2010)

Legend:
Assay in all cases: Test B pre-/postemergence plant response
Format in all cases: in vivo
[1] = system: Italian ryegrass (Lolium multiflorum); settings: for Ryegrass, Italian plant response rating: 8 g ai/ha
Summary of the method: (§1)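 Seeds were sown and sprayed preemergence, while plants at 2 to 18 cm (1- to 4-leaf stage) got postemergence sprays. Compounds were formulated in a non-phytotoxic solvent mixture with surfactant. After 13 to 15 days in a greenhouse, injury was rated visually against untreated controls, 0 (no effect) to 100 (complete control).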

[2] = system: blackgrass (Alopecurus myosuroides); settings: for Blackgrass plant response rating: 8 g ai/ha
Summary of the method: as §1

[3] = system: eastern black (E.B.) nightshade (Solanum ptycanthum); settings: Preemergence
Summary of the method: as §1

[4] = system: pigweed (Amaranthus retroflexus); settings: for Pigweed plant response rating: 8 g ai/ha
Summary of the method: as §1

kochia (Kochia scoparia) = settings: for Kochia plant response rating: 8 g ai/ha
Summary of the method: as §1

[5] = system: woolly cupgrass (Eriochloa villosa); settings: for Cupgrass, Woolly plant response rating: 8 g ai/ha
Summary of the method: as §1

[6] = system: Russian thistle (Salsola iberica); settings: Preemergence
Summary of the method: as §1

[7] = system: lambsquarters (Chenopodium album); settings: for Lambsquarters plant response rating: 8 g ai/ha
Summary of the method: as §1

[8] = system: johnsongrass (Sorghum halepense); settings: for Johnsongrass plant response rating: 8 g ai/ha
Summary of the method: as §1

[9] = system: goosegrass (Eleusine indica); settings: for Goosegrass plant response rating: 8 g ai/ha
Summary of the method: as §1

[10] = system: catchweed bedstraw (Galium aparine); settings: Preemergence
Summary of the method: as §1

[11] = system: giant foxtail (Setaria faberii); settings: for Foxtail, Giant plant response rating: 8 g ai/ha
Summary of the method: as §1

soybean (Glycine max) = settings: for Soybean plant response rating: 8 g ai/ha
Summary of the method: as §1

[12] = system: common ragweed (Ambrosia elation); settings: for Ragweed plant response rating: 8 g ai/ha
Summary of the method: as §1

[13] = Postemergence, 16 g ai/ha, scale 0 to 100
[14] = Postemergence, 31 g ai/ha, scale 0 to 100, 0 no effect, 100 complete control
[15] = Postemergence, 62 g ai/ha, scale 0 to 100, 0 no effect, 100 complete control
[16] = Preemergence, 16 g ai/ha, scale 0 to 100 (0 no effect, 100 complete control)
[17] = Preemergence, 31 g ai/ha, 0 to 100 scale, 0 no effect, 100 complete control
[18] = Preemergence, 62 g ai/ha, scale 0 to 100
[19] = 16 g ai/ha, scale 0 to 100 (0 no effect, 100 complete control)
[20] = 31 g ai/ha, 0 to 100 scale, 0 no effect, 100 complete control

## CCc1cc(-c2ccc(Cl)cc2)nn1-c1c(OS(C)(=O)=O)cnn(C)c1=O [Compound 39]
[1]; postemergence, 0-100 scale
  Ryegrass, Italian plant response rating: 30
[1]; [13]
  Plant response rating, Ryegrass, Italian: 90
[1]; [14]
  Plant response rating, Ryegrass, Italian: 95
[1]; [15]
  Plant response rating, Ryegrass, Italian: 100
[1]; [16]
  Plant response rating, Ryegrass, Italian: 95
[1]; [17]
  Plant response rating, Ryegrass, Italian: 100
[1]; [18]
  Plant response rating, Ryegrass, Italian: 100
[1]; Preemergence, scale 0 to 100
  Ryegrass, Italian plant response rating: 90
[2]; postemergence, 0-100 scale
  Blackgrass plant response rating: 0
[2]; [13]
  Plant response rating, Blackgrass: 0
[2]; [14]
  Plant response rating, Blackgrass: 95
[2]; [15]
  Plant response rating, Blackgrass: 100
[2]; [16]
  Plant response rating, Blackgrass: 90
[2]; [17]
  Plant response rating, Blackgrass: 90
[2]; [18]
  Plant response rating, Blackgrass: 90
[2]; Preemergence, scale 0 to 100
  Blackgrass plant response rating: 40
[3]; [19]
  Plant response rating, Nightshade, E. B.: 0
[3]; [20]
  Plant response rating, Nightshade, E. B.: 0
[3]; 62 g ai/ha, scale 0 to 100
  Plant response rating, Nightshade, E. B.: 0
[3]; 8 g ai/ha, scale 0 to 100
  Nightshade, E. B. plant response rating: 0
[4]; postemergence, 0-100 scale
  Pigweed plant response rating: 0
[4]; [13]
  Plant response rating, Pigweed: 0
[4]; [14]
  Plant response rating, Pigweed: 0
[4]; [15]
  Plant response rating, Pigweed: 0
[4]; [16]
  Plant response rating, Pigweed: 0
[4]; [17]
  Plant response rating, Pigweed: 0
[4]; [18]
  Plant response rating, Pigweed: 0
[4]; Preemergence, scale 0 to 100
  Pigweed plant response rating: 0
Kochia (Kochia scoparia); postemergence, 0-100 scale
  Kochia plant response rating: 0
Kochia (Kochia scoparia); [13]
  Plant response rating, Kochia: 0
Kochia (Kochia scoparia); [14]
  Plant response rating, Kochia: 0
Kochia (Kochia scoparia); [15]
  Plant response rating, Kochia: 0
Kochia (Kochia scoparia); [16]
  Plant response rating, Kochia: 0
Kochia (Kochia scoparia); [17]
  Plant response rating, Kochia: 0
Kochia (Kochia scoparia); [18]
  Plant response rating, Kochia: 0
Kochia (Kochia scoparia); Preemergence, scale 0 to 100
  Kochia plant response rating: 0
[5]; postemergence, 0-100 scale
  Cupgrass, Woolly plant response rating: 80
[5]; [13]
  Plant response rating, Cupgrass, Woolly: 95
[5]; [14]
  Plant response rating, Cupgrass, Woolly: 100
[5]; [15]
  Plant response rating, Cupgrass, Woolly: 100
[5]; [16]
  Plant response rating, Cupgrass, Woolly: 65
[5]; [17]
  Plant response rating, Cupgrass, Woolly: 95
[5]; [18]
  Plant response rating, Cupgrass, Woolly: 98
[5]; Preemergence, scale 0 to 100
  Cupgrass, Woolly plant response rating: 20
[6]; [19]
  Plant response rating, Russian Thistle: 0
[6]; [20]
  Plant response rating, Russian Thistle: 0
[6]; 62 g ai/ha, scale 0 to 100
  Plant response rating, Russian Thistle: 0
[6]; 8 g ai/ha, scale 0 to 100
  Russian Thistle plant response rating: 0
[7]; postemergence, 0-100 scale
  Lambsquarters plant response rating: 0
[7]; [13]
  Plant response rating, Lambsquarters: 0
[7]; [14]
  Plant response rating, Lambsquarters: 0
[7]; [15]
  Plant response rating, Lambsquarters: 0
[7]; [16]
  Plant response rating, Lambsquarters: 0
[7]; [17]
  Plant response rating, Lambsquarters: 0
[7]; [18]
  Plant response rating, Lambsquarters: 0
[7]; Preemergence, scale 0 to 100
  Lambsquarters plant response rating: 0
[8]; postemergence, 0-100 scale
  Johnsongrass plant response rating: 40
[8]; [13]
  Plant response rating, Johnsongrass: 55
[8]; [14]
  Plant response rating, Johnsongrass: 95
[8]; [15]
  Plant response rating, Johnsongrass: 95
[8]; [16]
  Plant response rating, Johnsongrass: 90
[8]; [17]
  Plant response rating, Johnsongrass: 90
[8]; [18]
  Plant response rating, Johnsongrass: 95
[8]; Preemergence, scale 0 to 100
  Johnsongrass plant response rating: 75
[9]; postemergence, 0-100 scale
  Goosegrass plant response rating: 20
[9]; [13]
  Plant response rating, Goosegrass: 65
[9]; [14]
  Plant response rating, Goosegrass: 85
[9]; [15]
  Plant response rating, Goosegrass: 100
[9]; [16]
  Plant response rating, Goosegrass: 100
[9]; [17]
  Plant response rating, Goosegrass: 100
[9]; [18]
  Plant response rating, Goosegrass: 100
[9]; Preemergence, scale 0 to 100
  Goosegrass plant response rating: 95
[10]; [19]
  Plant response rating, Galium: 0
[10]; [20]
  Plant response rating, Galium: 0
[10]; 62 g ai/ha, scale 0 to 100
  Plant response rating, Galium: 0
[10]; 8 g ai/ha, scale 0 to 100
  Galium plant response rating: 0
[11]; postemergence, 0-100 scale
  Foxtail, Giant plant response rating: 80
[11]; [13]
  Plant response rating, Foxtail, Giant: 98
[11]; [14]
  Plant response rating, Foxtail, Giant: 100
[11]; [15]
  Plant response rating, Foxtail, Giant: 100
[11]; [16]
  Plant response rating, Foxtail, Giant: 100
[11]; [17]
  Plant response rating, Foxtail, Giant: 100
[11]; [18]
  Plant response rating, Foxtail, Giant: 100
[11]; Preemergence, scale 0 to 100
  Foxtail, Giant plant response rating: 100
Soybean (Glycine max); postemergence, 0-100 scale
  Soybean plant response rating: 0
Soybean (Glycine max); [13]
  Plant response rating, Soybean: 0
Soybean (Glycine max); [15]
  Plant response rating, Soybean: 0
Soybean (Glycine max); [16]
  Plant response rating, Soybean: 0
Soybean (Glycine max); [17]
  Plant response rating, Soybean: 0
Soybean (Glycine max); [18]
  Plant response rating, Soybean: 0
Soybean (Glycine max); Preemergence, scale 0 to 100
  Soybean plant response rating: 0
[12]; postemergence, 0-100 scale
  Ragweed plant response rating: 0
[12]; [13]
  Plant response rating, Ragweed: 0
[12]; [14]
  Plant response rating, Ragweed: 0
[12]; [15]
  Plant response rating, Ragweed: 0
[12]; [16]
  Plant response rating, Ragweed: 0
[12]; [17]
  Plant response rating, Ragweed: 0
[12]; [18]
  Plant response rating, Ragweed: 0
[12]; Preemergence, scale 0 to 100
  Ragweed plant response rating: 0
